Results: patent US12410178B2, “Small cationic ortho-5,15-di-heteroaryl-porphyrin derivatives and their applications in photoinactivation of microorganisms” (UNIVERSIDADE DE COIMBRA, priority 2019, dated 2025)

Experiments:
[1] = test system: Staphylococcus aureus ATCC 25925 biofilms; assay: PDI phototoxicity towards biofilms (CFU); format: cell-based
Protocol: Phototoxicity towards biofilms was evaluated after biofilm growth overnight. Assays were performed with biofilms from Staphylococcus aureus ATCC 25925. Initially, bacteria cultures were diluted 1:9 in Brain Heart Infusion (BHI) (Kasvi®, Brazil). The microorganisms were centrifuged (1500 rpm, 10 min) and washed twice with phosphate-buffered saline (PBS). Aliquots of the diluted bacterial suspensions were inoculated into 24-well flat-bottom sterile polystyrene microplates and incubated for 24 h at 37° C. For PDI experiments, the plates with biofilms were incubated with 5.2 nM of the photosensitizer for 30 min in the dark at room temperature. Wells used as controls were incubated with PBS only. After that, the plates were illuminated with a specially designed light source named Biotable®. The Biotable® was composed by 24 LED lamps that deliver a uniform light fluence rate of 30 mW/cm^2 in the wavelength range between 400-650 rm. […] After this time, the colonies were counted and the colony-forming units (CFU) determined.
For the phototoxicity study, Staphylococcus aureus ATCC 25925 biofilms grown on 24-well flat-bottom sterile polystyrene microplates were incubated with 5.2 nM of the cationic ortho-5,15-di-heteroaryl porphyrin with Formula (IIa) for 30 min in the dark at room temperature. […] After this time, the colonies were counted and CFU determined. […]

Solubility in water = format: physicochemical
[2] = Fluorescence quantum yield; format: physicochemical; conditions: standard TPP in toluene
Protocol: Fluorescence Emission: The fluorescence emission spectra were recorded in a Horiba Scientific Spectrofluorometer Fluoromax-4. The spectra were collected from 550 nm up to 800 nm using standard cuvettes of 1 cm of optical path. Fluorescence quantum yields (ΦF) were obtained comparing the area of integrated fluorescence of the samples with that of a reference fluorimetric compound with known ΦF, corrected by the absorption of sample and reference at the excitation wavelength and by the refractive indices of the solvents used for the standard and reference solution. Tetraphenylporphyrin (TPP) in toluene (ΦF=0.11) was used as standard. The absorbance of the solutions at the excitation wavelength was 0.01.

[3] = test system: Pseudomonas aeruginosa ATCC 27853; assay: PDI phototoxicity towards planktonic bacteria (CFU); format: cell-based; conditions: 60 min incubation
Protocol: (§1) Phototoxicity towards bacteria was evaluated in vitro. Assays were performed with the following bacteria: Escherichia coli ATCC 25922, Pseudomonas aeruginosa ATCC 27853 and Staphylococcus aureus ATCC 29213. Further assay were performed with clinical antibiotic-resistant strains from the Centro Hospitalar da Universidade de Coimbra, namely Staphylococcus aureus methicillin-resistant (MRSA) strain Sa1CHUC recovered from the skin of a burnt patient (resistant to all beta-lactamic antibiotics), and Acinetobacter baumannii 141HUC isolated from an exudate of a burn wound and highly resistant to all beta-lactamics (penicillins, cephalosporins, monobactams and carbapenems), quinolones and the aminoglycosides gentamicin and netilmicin. The planktonic bacteria cells were cultured in Mueller Hinton (MH) agar (Sigma Aldrich) at 37° C. overnight. Cell density was adjusted to the 0.5 McFarland standard in sterile water, which corresponds to approximately 1.5×10^8 CFU/mL. For PDI experiments cell suspensions of bacteria were incubated with various concentrations of the photosensitizers for 1 h, in the dark, at room temperature, using a 96 well plate. Then, the plate was illuminated with a blue light LED (420 nm, 4 mJ/s). Cells incubated with photosensitizers in the dark were covered with aluminum foil for the same time as the PDI groups (1 h). After illumination (or dark incubation) samples were shaken, diluted in PBS and mixed. Aliquots were taken from each well and streaked in MH agar in duplicate for CFU determination and incubated for 37° C./18-24 h in the dark. After 24 h, the colonies were counted and CFU determined. The experiments were performed in triplicate. Statistical analysis was performed with GraphPad Prism 6.
(§2) This example describes the evaluation of in vitro phototoxicity against Gram-positive and Gram-negative bacteria of the cationic ortho-5,15-di-heteroaryl porphyrin with Formula (IIa). The phototoxicity was measured according to the description in the Materials and Methods section. […] There is a dose-phototoxicity response of the test compound relative to the non-treated control. FIG. 8 illustrates the CFU reduction as a function of photosensitizer concentration for the light dose of 1.36 J/cm^2 at 415 nm.

[4] = test system: Escherichia coli ATCC 25922; assay: as above; format: cell-based
Protocol: as §1, §2

[5] = test system: Staphylococcus aureus ATCC 29213; assay: as above; format: cell-based
Protocol: as §1, §2

[6] = 1 μM, planktonic, 1.36 J/cm^2 at 415 nm, 60 min incubation
[7] = nanomolar concentrations, 60 min incubation, low light doses

For `Cn1cc[n+](C)c1C1=C2C=CC3=[N+]2[Zn@]24[n]5c(ccc51)C=C1C=CC(=[N+]12)C(c1n(C)cc[n+]1C)=c1ccc([n]14)=C3` [Formula (IIa), 5,15-bis(1,3-dimethylimidazol-2-yl)porphyrinate zinc (II) diiodide], the “log CFU at 5.2 nM, S. Aureus biofilm” value ([1]; 5.2 nM, biofilm, 5 J/cm^2, 400-650 nm, 30 min incubation) was 7, the “reduction of bacteria in the biofilm” value ([1]; ca. 5 nM, 5 J/cm^2 of white light) was 7 orders of magnitude and the solubility in water (Solubility in water) was “soluble in water”. For the same compound, the “ΦF fluorescence quantum yield” value [2] was 0.10, the “log CFU at 1 μM, P. Aerogirosa” value ([3]; 1 μM, planktonic, 1.36 J/cm^2 at 415 nm) was 3 and the “CFU reduction (in words)” value ([3]; nanomolar concentrations, low light doses) was “dramatic decrease in CFU”. For the same compound, the “reduction of the number of bacterial CFU” value ([4]; 1 μM, 1.36 J/cm^2 at 415 nm) was 7 orders of magnitude, the “log CFU at 1 μM, E. Coli” value [4, 6] was 7 and the “CFU reduction (in words)” value [4, 7] was “dramatic decrease in CFU”. The “reduction of the number of bacterial CFU” value ([5]; 1 μM, 1.36 J/cm^2 at 415 nm) was 7 orders of magnitude, the “log CFU at 1 μM, S. Aureus” value [5, 6] was 7 and the “CFU reduction (in words)” value [5, 7] was “dramatic decrease in CFU”.
